Measurements as given in patent US9357775B2, “Rosin-derived cationic compounds and polymers” (University of South Carolina, priority 2011, dated 2016).

Legend:
Assay type in all cases: cell-based
[1] = test system: different bacterial strains; assay: Control experiments with residual copper catalysts and solvents; conditions: control for residual catalyst/solvent
Experimental: To further confirm that the antimicrobial activities were not caused by residual copper catalysts and solvents (i.e. methanol), control experiments were carried out using these reagents against different bacterial strains.

Gram-positive bacteria = assay: MIC determination by disk-diffusion method, Gram-positive bacteria
Experimental: (§1) Tests for antimicrobial activities were carried out using rosin-derived quaternary ammonium 1 and their polymer 4 with a number-average molecular weight of 7.5×105 g/mol. The antimicrobial susceptibilities of several Gram-negative bacteria (e.g. Pseudomonas aeruginosa, Escherichia coli, Enterobacter aerogenes, and Klebsiella pneumonia) and Gram-positive bacteria (Staphylococcus aureus and Bacillus cereus) were determined. These strains were purified at laboratory and maintained at −70° C. in a 1:1 mixture of glycerol and dimethylsulfoxide (DMSO). To conduct the assays, a small volume of actively-growing cultures of each bacterial strain is spread on agar plates, and incubated at 28° C. for 24 h to form a ‘bacterial lawn’ covering the plate surface. Then 6 mm (dia) filter discs are added to the surface, and 30 ul samples (containing each compound at several concentrations dissolved in DMSO) are applied to the disc surfaces, and the plates are incubated.
(§2) Considering the potential applications of antimicrobial compounds and polymers as coatings for food packaging, medical implants and devices, and antifouling surfaces, all subsequent MIC determinations were carried out using the disk-diffusion method.

Gram-negative bacteria = assay: MIC determination by disk-diffusion method, Gram-negative bacteria
Experimental: as §1, §2

SMILES	toxicity against bacterial strains [1]	antimicrobial activity (control experiments) (Gram-positive bacteria)	antimicrobial activity (control experiments) (Gram-negative bacteria)
CO [methanol]	did not exhibit significant toxicity		
CC[N+](CC)(CC)CC.[Br-] [TEAB, tetraethylammonium bromide]		no activities	no activities
